In patent publication US4753953A, “Pyridonecarboxylic acid derivatives and antibacterial pharmaceutical compositions thereof” (priority 1985, dated 1988):
≈ marks a conversion by molar mass, not a printed value. Like-named read-outs stand apart in the source and are kept apart here.

Key:
Experiment in all cases: MIC, in vitro antibacterial activity (standard strains)
F. varium KYA 8501 = format: cell-based; conditions: Fusobacterium varium, KYA8501; 10^6 cells/ml; Gram -; read-out: MIC
P. maltophilia GIFU 2491 = format: cell-based; conditions: Stenotrophomonas maltophilia, GIFU2491
[1] = tested on: Peptococcus magnus KY 017; format: cell-based; conditions: Finegoldia magna, KY017; 10^6 cells/ml; Gram +; read-out: MIC
[2] = tested on: Streptococcus pyogenes (S-8); format: cell-based; conditions: Streptococcus pyogenes; 10^6 cells/ml; Gram +; read-out: MIC
[3] = tested on: Citrobacter freundii IID 976; format: cell-based; conditions: Citrobacter freundii, IID976
E. coli ML 4707 = format: cell-based, Escherichia coli; conditions: Escherichia coli, ML4707, 10^6 cells/ml; Gram -; Table 1; read-out: MIC
[4] = tested on: Enterobacter cloacae IID 977; format: cell-based; conditions: Enterobacter cloacae, IID977; 10^6 cells/ml; Gram -; read-out: MIC
[5] = tested on: Fusobacterium mortiferum 4249; format: cell-based; conditions: Fusobacterium mortiferum, 4249; 10^6 cells/ml; Gram -; read-out: MIC
[6] = tested on: Pseudomonas aeruginosa V-1; format: cell-based; conditions: Pseudomonas aeruginosa, V1
[7] = tested on: Yersinia enterocolitica IID 981; format: cell-based; conditions: Yersinia enterocolitica, IID981
[8] = tested on: Acinetobacter anitratus IID 876; format: cell-based; conditions: Acinetobacter calcoaceticus, IID876; 10^6 cells/ml; Gram -; read-out: MIC
B. fragilis 25285 = format: cell-based, Bacteroides fragilis; conditions: Bacteroides fragilis, 25285; 10^6 cells/ml; Gram -; read-out: MIC
Shigella sonnei IID 969 = format: cell-based; conditions: Shigella sonnei, IID969; 10^6 cells/ml; Gram -; read-out: MIC
Procedure: Minimal inhibitory concentrations (MICs) were determined in accordance with the method recommended by Japan Society of Chemotherapy.

S. epidermidis IID 866 = format: cell-based; conditions: Staphylococcus epidermidis, IID866; 10^6 cells/ml; Gram +; read-out: MIC
[9] = tested on: Escherichia coli NIHJ JC-2; format: cell-based; conditions: Escherichia coli, NIHJJC2
[10] = tested on: Propionibacterium acens 11828; format: cell-based; conditions: Propionibacterium, 11828; 10^6 cells/ml; Gram +; read-out: MIC
[11] = 10^6 cells/ml, Gram -, read-out: MIC

Structure (SMILES): C[C@H]1CN(c2c(F)cc3c(=O)c(C(=O)O)cn4c3c2OC[C@@H]4C)C[C@H]1N.Cl (mixture of isomers) [Example 31, (3S)-10-(cis-3-Amino-4-methyl-1-pyrrolidinyl)-9-fluoro-2,3-dihydro-3-methyl-7-oxo-7H-pyrido[1,2,3-de][1,4]benzoxazine-6-carboxylic acid hydrochloride]
- MIC (F. varium KYA 8501): 3.13 µg/mL
- MIC (P. maltophilia GIFU 2491; [11]): 0.78 µg/mL
- MIC [1]: 0.2 µg/mL
- MIC [2]: 0.2 µg/mL
- MIC [3, 11]: 0.05 µg/mL
- MIC (E. coli ML 4707): 0.025 µg/mL
- MIC [4]: 0.1 µg/mL
- MIC [5]: 0.39 µg/mL
- MIC [6, 11]: 0.39 µg/mL
- MIC [7, 11]: 0.1 µg/mL
- MIC [8]: 1.56 µg/mL
- MIC (B. fragilis 25285): 0.78 µg/mL
- MIC (Shigella sonnei IID 969): 0.05 µg/mL
- MIC (S. epidermidis IID 866): 0.2 µg/mL
- MIC [9, 11]: 0.025 µg/mL
- MIC [10]: 6.25 µg/mL

Structure (SMILES): C[C@@H]1CN(c2c(F)cc3c(=O)c(C(=O)O)cn(C4CC4)c3c2F)C[C@H]1N (relative stereo) [Example 18, 7-(trans-3-Amino-4-methyl-1-pyrrolidinyl)-1-cyclopropyl-6,8-difluoro-1,4-dihydro-4-oxo-3-quinolinecarboxylic acid]
- MIC (F. varium KYA 8501): 1.56 µg/mL (≈ 4.29 µM)
- MIC (P. maltophilia GIFU 2491): 0.05 µg/mL (≈ 0.138 µM)
- MIC [1]: 0.05 µg/mL (≈ 0.138 µM)
- MIC [2]: 0.05 µg/mL (≈ 0.138 µM)
- MIC [3]: 0.0125 µg/mL (≈ 0.0344 µM)
- MIC (E. coli ML 4707): 0.0063 µg/mL (≈ 0.0173 µM)
- MIC [4]: 0.05 µg/mL (≈ 0.138 µM)
- MIC [5]: 0.2 µg/mL (≈ 0.55 µM)
- MIC [6, 11]: 0.1 µg/mL (≈ 0.275 µM)
- MIC [7, 11]: 0.05 µg/mL (≈ 0.138 µM)
- MIC [8]: 0.025 µg/mL (≈ 0.0688 µM)
- MIC (B. fragilis 25285): 0.2 µg/mL (≈ 0.55 µM)
- MIC (Shigella sonnei IID 969): 0.0125 µg/mL (≈ 0.0344 µM)
- MIC (S. epidermidis IID 866): 0.05 µg/mL (≈ 0.138 µM)
- MIC [9, 11]: 0.0063 µg/mL (≈ 0.0173 µM)
- MIC [10]: 1.56 µg/mL (≈ 4.29 µM)

Structure (SMILES): C[C@H]1CN(c2c(F)cc3c(=O)c(C(=O)O)cn(C4CC4)c3c2F)C[C@H]1N.Cl (relative stereo) [Example 20, 7-(cis-3-Amino-4-methyl-1-pyrrolidinyl)-1-cyclopropyl-6,8-difluoro-1,4-dihydro-4-oxo-3-quinolinecarboxylic acid hydrochloride]
- MIC (F. varium KYA 8501): 1.56 µg/mL
- MIC (P. maltophilia GIFU 2491; [11]): 0.39 µg/mL
- MIC [1]: 0.2 µg/mL
- MIC [2]: 0.2 µg/mL
- MIC [3, 11]: 0.025 µg/mL
- MIC (E. coli ML 4707): 0.025 µg/mL
- MIC [4]: 0.05 µg/mL
- MIC [5]: 0.39 µg/mL
- MIC [6, 11]: 0.2 µg/mL
- MIC [7, 11]: 0.05 µg/mL
- MIC [8]: 0.05 µg/mL
- MIC (B. fragilis 25285): 0.39 µg/mL
- MIC (Shigella sonnei IID 969): 0.0125 µg/mL
- MIC (S. epidermidis IID 866): 0.05 µg/mL
- MIC [9]: 0.0125 µg/mL
- MIC [10]: 3.13 µg/mL

Structure (SMILES): C[C@H]1CN(c2c(F)cc3c(=O)c(C(=O)O)cn(C4CC4)c3c2Br)C[C@H]1N (relative stereo) [Example 21, 7-(cis-3-Amino-4-methyl-1-pyrrolidinyl)-8-bromo-1-cyclopropyl-6-fluoro-1,4-dihydro-4-oxo-3-quinolinecarboxylic acid]
- MIC (F. varium KYA 8501): 0.78 µg/mL (≈ 1.84 µM)
- MIC (P. maltophilia GIFU 2491; [11]): 0.05 µg/mL (≈ 0.118 µM)
- MIC [1]: 0.05 µg/mL (≈ 0.118 µM)
- MIC [2]: 0.1 µg/mL (≈ 0.236 µM)
- MIC [3, 11]: 0.025 µg/mL (≈ 0.0589 µM)
- MIC (E. coli ML 4707): 0.0125 µg/mL (≈ 0.0295 µM)
- MIC [4]: 0.025 µg/mL (≈ 0.0589 µM)
- MIC [5]: 0.2 µg/mL (≈ 0.471 µM)
- MIC [6, 11]: 0.39 µg/mL (≈ 0.919 µM)
- MIC [7]: 0.025 µg/mL (≈ 0.0589 µM)
- MIC [8]: 0.025 µg/mL (≈ 0.0589 µM)
- MIC (B. fragilis 25285): 0.05 µg/mL (≈ 0.118 µM)
- MIC (Shigella sonnei IID 969): 0.0063 µg/mL (≈ 0.0148 µM)
- MIC (S. epidermidis IID 866): 0.05 µg/mL (≈ 0.118 µM)
- MIC [9, 11]: 0.0063 µg/mL (≈ 0.0148 µM)
- MIC [10]: 1.56 µg/mL (≈ 3.68 µM)

Structure (SMILES): CCn1cc(C(=O)O)c(=O)c2cc(F)c(N3C[C@@H](N)[C@@H](C)C3)c(F)c21 (relative stereo) [Example 22, 7-(cis-3-Amino-4-methyl-1-pyrrolidinyl)-1-ethyl-6,8-difluoro-1,4-dihydro-4-oxo-3-quinolinecarboxylic acid]
- MIC (F. varium KYA 8501): 6.25 µg/mL (≈ 17.8 µM)
- MIC (P. maltophilia GIFU 2491; [11]): 0.78 µg/mL (≈ 2.22 µM)
- MIC [1]: 1.56 µg/mL (≈ 4.44 µM)
- MIC [2]: 0.78 µg/mL (≈ 2.22 µM)
- MIC [3, 11]: 0.05 µg/mL (≈ 0.142 µM)
- MIC (E. coli ML 4707): 0.05 µg/mL (≈ 0.142 µM)
- MIC [4]: 0.1 µg/mL (≈ 0.285 µM)
- MIC [5]: 1.56 µg/mL (≈ 4.44 µM)
- MIC [6, 11]: 0.39 µg/mL (≈ 1.11 µM)
- MIC [7, 11]: 0.1 µg/mL (≈ 0.285 µM)
- MIC [8]: 0.39 µg/mL (≈ 1.11 µM)
- MIC (B. fragilis 25285): 1.56 µg/mL (≈ 4.44 µM)
- MIC (Shigella sonnei IID 969): 0.1 µg/mL (≈ 0.285 µM)
- MIC (S. epidermidis IID 866): 0.2 µg/mL (≈ 0.569 µM)
- MIC [9, 11]: 0.05 µg/mL (≈ 0.142 µM)
- MIC [10]: 25 µg/mL (≈ 71.2 µM)

Structure (SMILES): CCn1cc(C(=O)O)c(=O)c2cc(F)c(N3C[C@@H](N)[C@@H](C)C3)c(Cl)c21 (relative stereo) [Example 23, 7-(cis-3-Amino-4-methyl-1-pyrrolidinyl)-8-chloro-1-ethyl-6-fluoro-1,4-dihydro-4-oxo-3-quinolinecarboxylic acid]
- MIC (F. varium KYA 8501): 6.25 µg/mL (≈ 17 µM)
- MIC (P. maltophilia GIFU 2491; [11]): 0.39 µg/mL (≈ 1.06 µM)
- MIC [1]: 0.78 µg/mL (≈ 2.12 µM)
- MIC [2]: 0.78 µg/mL (≈ 2.12 µM)
- MIC [3, 11]: 0.05 µg/mL (≈ 0.136 µM)
- MIC (E. coli ML 4707): 0.05 µg/mL (≈ 0.136 µM)
- MIC [4]: 0.1 µg/mL (≈ 0.272 µM)
- MIC [5]: 1.56 µg/mL (≈ 4.24 µM)
- MIC [6, 11]: 0.39 µg/mL (≈ 1.06 µM)
- MIC [7, 11]: 0.05 µg/mL (≈ 0.136 µM)
- MIC [8]: 0.39 µg/mL (≈ 1.06 µM)
- MIC (B. fragilis 25285): 0.78 µg/mL (≈ 2.12 µM)
- MIC (Shigella sonnei IID 969): 0.05 µg/mL (≈ 0.136 µM)
- MIC (S. epidermidis IID 866): 0.2 µg/mL (≈ 0.544 µM)
- MIC [9, 11]: 0.025 µg/mL (≈ 0.068 µM)
- MIC [10]: 12.5 µg/mL (≈ 34 µM)

Structure (SMILES): C[C@H]1CN(c2c(F)cc3c(=O)c(C(=O)O)cn(CCF)c3c2F)C[C@H]1N (relative stereo) [Example 25, 7-(cis-b 3-Amino-4-methyl-1-pyrrolidinyl)-6,8-difluoro-1-(2-fluoroethyl)-1,4-dihydro-4-oxo-3-quinolinecarboxylic acid]
- MIC (F. varium KYA 8501): 6.25 µg/mL (≈ 16.9 µM)
- MIC (P. maltophilia GIFU 2491; [11]): 1.56 µg/mL (≈ 4.22 µM)
- MIC [1]: 1.56 µg/mL (≈ 4.22 µM)
- MIC [2]: 0.78 µg/mL (≈ 2.11 µM)
- MIC [3, 11]: 0.1 µg/mL (≈ 0.271 µM)
- MIC (E. coli ML 4707): 0.05 µg/mL (≈ 0.135 µM)
- MIC [4]: 0.1 µg/mL (≈ 0.271 µM)
- MIC [5]: 3.13 µg/mL (≈ 8.47 µM)
- MIC [6]: 0.78 µg/mL (≈ 2.11 µM)
- MIC [7, 11]: 0.1 µg/mL (≈ 0.271 µM)
- MIC [8]: 1.56 µg/mL (≈ 4.22 µM)
- MIC (B. fragilis 25285): 3.13 µg/mL (≈ 8.47 µM)
- MIC (Shigella sonnei IID 969): 0.78 µg/mL (≈ 2.11 µM)
- MIC (S. epidermidis IID 866): 0.39 µg/mL (≈ 1.06 µM)
- MIC [9, 11]: 0.05 µg/mL (≈ 0.135 µM)
- MIC [10]: 25 µg/mL (≈ 67.7 µM)

Structure (SMILES): C[C@H]1CN(c2c(F)cc3c(=O)c(C(=O)O)cn(CCF)c3c2Cl)C[C@H]1N (relative stereo) [Example 27, 7-(cis-3-Amino-4-methyl-1-pyrrolidinyl)-8-chloro-6-fluoro-1-(2-fluoroethyl)-1,4-dihydro-4-oxo-3-quinolinecarboxylic acid]
- MIC (F. varium KYA 8501): 6.25 µg/mL (≈ 16.2 µM)
- MIC (P. maltophilia GIFU 2491; [11]): 1.56 µg/mL (≈ 4.04 µM)
- MIC [1]: 0.78 µg/mL (≈ 2.02 µM)
- MIC [2]: 0.78 µg/mL (≈ 2.02 µM)
- MIC [3, 11]: 0.1 µg/mL (≈ 0.259 µM)
- MIC (E. coli ML 4707): 0.05 µg/mL (≈ 0.13 µM)
- MIC [4]: 0.1 µg/mL (≈ 0.259 µM)
- MIC [5]: 1.56 µg/mL (≈ 4.04 µM)
- MIC [6]: 0.39 µg/mL (≈ 1.01 µM)
- MIC [7, 11]: 0.1 µg/mL (≈ 0.259 µM)
- MIC [8]: 1.56 µg/mL (≈ 4.04 µM)
- MIC (B. fragilis 25285): 1.56 µg/mL (≈ 4.04 µM)
- MIC (Shigella sonnei IID 969): 0.78 µg/mL (≈ 2.02 µM)
- MIC (S. epidermidis IID 866): 0.2 µg/mL (≈ 0.518 µM)
- MIC [9, 11]: 0.05 µg/mL (≈ 0.13 µM)
- MIC [10]: 12.5 µg/mL (≈ 32.4 µM)
